Values of other authors, collected in patent US7368585B2, “Synthetic techniques and intermediates for polyhydroxy dienyl lactones and mimics thereof” (The Trustees Of The University Of Pennsylvania, priority 1996, dated 2008).

Experiments:
murine splenocytes [1] = details: in vitro
[2] = tested on: graft-vs.-host splenomegaly response; details: in vivo
murine splenocytes [3] = details: in vitro; remark: listed apart in the source
[4] = tested on: two-way mixed-lymphocyte reaction; details: in vitro
[5] = tested on: cell development at the M phase; details: by binding and stabilizing mitotic spindle microtubules
[6] = tested on: mitotic spindle microtubules; details: compared with taxol

C=C/C=C\[C@H](C)[C@H](OC(N)=O)[C@@H](C)[C@H](O)[C@@H](C)C/C(C)=C\[C@H](C)[C@@H](O)[C@@H](C)/C=C\[C@@H](O)C[C@@H]1OC(=O)[C@H](C)[C@@H](O)[C@H]1C [(+)-discodermolide]
associated cytotoxicity (murine splenocytes [1]): no associated cytotoxicity | potency in graft-vs.-host splenomegaly response relative to cyclosporin A and FK506 ([2]; F1 recipient mice): intermediate between those of cyclosporin A and FK506 | suppression of graft-vs.-host splenomegaly response ([2]; injection of parental splenocytes into F1 recipient mice): suppresses | suppression of concanavalin A-induced mitogenesis of murine splenocytes (murine splenocytes [3]): suppresses | suppression of the two-way mixed-lymphocyte reaction [4]: suppresses | cell cycle effect [5]: arrests cell development at the M phase | microtubule binding affinity relative to taxol [6]: much higher
